In PMC11647681, “Discovery of Non-Covalent Inhibitors for SARS-CoV-2 PLpro: Integrating Virtual Screening, Synthesis, and Experimental Validation” (ACS Medicinal Chemistry Letters, 2024):
≈ marks a conversion by molar mass, not a printed value. Where “and” joins values, the source holds several entries; their conditions need not be identical. Equal values may be shown once. Read-outs that look alike come from different tables or passages of the source.

Key:
in vitro [1] = conditions: chlorocebus sabaeus
SARS-CoV-2 PLpro = SARS-CoV-2 PLpro (Severe acute respiratory syndrome coronavirus 2, UniProt P0DTD1); assay: SARS-CoV-2 PLpro inhibition assay (enzymatic, LKGG-AMC substrate); type: biochemical; conditions: for Ki: Hanes-Woolf plot; for Ki / inhibition mechanism: kinetic characterization; for IC50: enzymatic assay
in vitro [2] = conditions: human
[3] = mouse, microsomes, 0.5 h; cited from earlier work
[4] = rat, microsomes, 0.5 h; cited from earlier work
PLpro = conditions: cited from earlier work; for IC50: PLpro

Structure (SMILES)	CC50 (in vitro [1]) [µM]	IC50 (SARS-CoV-2 PLpro) [µM]	solubility (physchem) [µM]	CC50 (in vitro [2]) [µM]	other results
Cn1ccc(-c2ccc3nccc(N[C@@H]4CCNC4)c3n2)cc1=O [Compound 1, Cn1ccc(cc1=O)-c1ccc2nccc(NC3CC[NH2+]C3)c2n1]	23.8	73.6	195 (≈ 62.7 µg/mL)	> 50	Ki (SARS-CoV-2 PLpro): 22.4 ± 6.7 µM; inhibition mechanism (SARS-CoV-2 PLpro): competitive; inhibition test in absence and presence of Triton (aggregation check) (SARS-CoV-2 PLpro; with or without 0.01% Triton): no significant differences
CCN(CCNc1nc2ccccc2[nH]1)Cc1cc(Cl)ccc1O [Compound 2, CCN(CCNc1nc2ccccc2[nH]1)Cc1cc(ccc1O)Cl]		102			
CCN(CC)Cc1cc(Nc2nc3ccccc3[nH]2)ccc1O [Compound 3, CCN(CC)Cc1cc(ccc1O)Nc1nc2ccccc2[nH]1]		127			
NCCNc1nccc2[nH]c(-c3ccc(F)c(F)c3)nc12 [Compound 4, NCCNc1nccc2[nH]c(nc12)-c1ccc(c(c1)F)F]		130			
O=C1CN(C(=O)CNC(=O)c2ccc3c(c2)B(O)OC3)CCN1 [Compound 5, O[B]1OCc2ccc(cc21)C(=O)NCC(=O)N1CCNC(=O)C1]		137			
O=C(NCc1cccc(F)c1)c1ncc2ccccn12 [Compound 6, Fc1cccc(CNC(=O)c2ncc3ccccn23)c1]		194			
CN1CCC(Nc2ccnc3ccc(-c4ccc(C(=O)NCCO)nc4)nc23)CC1 [Compound 82, O=C(NCCO)C1=NC=C(C2=NC3=C(N=CC=C3NC4CCN(C)CC4)C=C2)C=C1]	> 50	79.8 ± 20.4	200 (≈ 81.3 µg/mL)	> 50	
CS(=O)(=O)c1cccc(-c2ccc3nccc(N4CCNCC4)c3n2)c1 [Compound 83, O=S(C1=CC=CC(C2=NC3=C(N=CC=C3N4CCNCC4)C=C2)=C1)(C)=O]	43.6	54.8	180 (≈ 66.3 µg/mL)	> 50	Microsomal stability, % remaining after 30 min [3]: 60.24%; Microsomal stability, % remaining after 30 min [4]: 50.41%
CNC(=O)c1ccc(-c2ccc3nccc(NC4CCNCC4)c3n2)cn1 [Compound 84, O=C(NC)C1=NC=C(C2=NC3=C(N=CC=C3NC4CCNCC4)C=C2)C=C1]	47.3	39.5 ± 4.62	175 (≈ 63.4 µg/mL)	> 50	
COc1ccc(-c2ccc3nccc(N[C@@H]4CCNC4)c3n2)cn1 [Compound 85, COC1=NC=C(C2=NC3=C(N=CC=C3N[C@@H]4CCNC4)C=C2)C=C1]	7.47	15.1 ± 2.19	190 (≈ 61.1 µg/mL)	26.3	Microsomal stability, % remaining after 30 min [3]: 66.61%; Microsomal stability, % remaining after 30 min [4]: 62.68%; fold improvement in PLpro activity (SARS-CoV-2 PLpro; 85 compared with 1): 5 fold; Ki (SARS-CoV-2 PLpro): 22.9 µM and 20.1 µM; inhibition mechanism (SARS-CoV-2 PLpro): competitive; inhibition test in absence and presence of CHAPS detergent (aggregation check) (SARS-CoV-2 PLpro; with and without 1 mM CHAPS): No significant difference
CCn1ccc(-c2cc(-c3cnn(C)c3)cc([C@@H](C)NC(=O)c3cc(OCCN(C)C)ccc3C)c2)n1 [Jun12682]					protease, deubiquitinase, and deISGylase activity of PLpro (PLpro): inhibited
S=C(SSC(=S)N1CCOCC1)N1CCOCC1 [RI173]					IC50 (PLpro): 0.2 µM
